Test results reported in US6482412B1, “Polypeptide having human HIV inhibitory activity, a gene encoding the polypeptide, a method to produce the polypeptide” (Gakkou Houjin Kitasato Gakuen, priority 1999, dated 2002).
Converted amounts (≈) assume the structure as drawn.

Experiments:
Format in all cases: cell-based
HIV infected MT-4 cell = assay: Anti-HIV activity by suppression of cytopathic effect, MTT method; details: Human immunodeficiency virus 1, MT4, 120 h, read-out: BC50
Description: (§1) Anti-HIV activity was measured from suppression of cytopathic effect caused by HIV infection. The HIV infected MT-4 cell (2.5×10^4 cells/well, degree of multiple infection: 0.01) was added to 96 well titer plate immediately after infection. At the same time, K97-0003 peptide of various concentration was also added to the plate. In order to examine cytopathic effect of K97-0003 peptide on MT-4 cell, cells uninfected by HIV was incubated with K97-0003 peptide of various concentrations in the same manner. After five days of incubation at 37° C. in a CO2 incubator, the number of cell survived was measured by MTT method.
(1) EC50: It is the concentration of K97-0003 peptide which inhibits 50% of the cytotoxicity by HIV infection, and is the parameter of anti-HIV activity of the peptide.

[1] = Cytotoxicity on uninfected MT-4 cells, MTT method; details: human, five days
Description: as §1
(2) CC50: It is the concentration of K97-0003 peptide that causes cytotoxicity to 50% of cells, and is the parameter of cytotoxic effect of the peptide.

[2] = test system: syncytium formation by fusion of HeLa/CD4/LTR cells and HeLa135/env (T-tropic HIV-1)/Tat cells; assay: cells; details: Human immunodeficiency virus 1, HeLa, read-out: IC50 of syncytium formation ability
Description: 50 μl of HeLa/CD4 /LTR cell suspension prepared to 1.6×10^5 cells/ml was inoculated into every each well of 96 well plate (IWAKI MICROPLATE 96well), and 10 μl of the sample, diluted in a series of concentration with phosphate buffer physiological saline, was added to every each well. Then, 50 μl of HeLa135/env(envelope glycoprotein: originated from T-tropic HIV-1)/Tat cell suspension prepared to 1.6×10^5 cells/ml was dispensed to every well, and incubated in an incubator at 37° C. under 5% CO2 air current for 24 hours. After removal of the culture fluid from each well, 20 μl of cell lysis solution was added to every each well, and the plate was left at the room temperature for about 10 minutes.
Continuously, 100 μl of chromogenic substrate solution (Z-buffer: 80 μl+4 mg/ml o-nitrophenyl-β-D-glactopyranoside:20 μl) was added to each well, and reacted in the incubator at 37° C. […] After 80 minutes, 25 μl of reaction stop solution (2M Na2CO3) was added to it, and the absorbance at 405 nm was measured using colorimeter (Organ ON SystemMicrowell System Reader 510). Syncytium formation ability was calculated from the obtained absorbance by the following formula.
Syncytium formation ability=the absorbance of the well with sample addition/absorbance of control×100

CN1C(=O)[C@@H](c2cc(Cl)c(O)c(Cl)c2)NC(=O)[C@@H]2NC(=O)[C@@H](c3cc(Cl)c(O)c(Cl)c3)NC(=O)[C@H](NC(=O)C(=O)c3cc(Cl)c(O)c(Cl)c3)Cc3c[nH]c4c(cccc34)-c3cc2cc(c3O)Oc2ccc(cc2)C[C@H]1C(=O)N[C@@H](C(=O)O)c1ccc(O)cc1 [Chloropeptine, chloropeptin, reference compound]
EC50 (HIV infected MT-4 cell): 1.6 µM | CC50 at 5 days [1]: > 600 µM | IC50 [2]: 1.7 µg/mL (≈ 1.28 µM)
